Measurements published in patent publication US12503475B2 (Centessa Pharmaceuticals (UK) Limited, priority 2020, dated 2025).

Target: T1, human orexin type 2 receptor (hOX2R) (Homo sapiens, UniProt O43614)
T1 construct: expressed in transfected cells
T1 sequence (O43614 1-444): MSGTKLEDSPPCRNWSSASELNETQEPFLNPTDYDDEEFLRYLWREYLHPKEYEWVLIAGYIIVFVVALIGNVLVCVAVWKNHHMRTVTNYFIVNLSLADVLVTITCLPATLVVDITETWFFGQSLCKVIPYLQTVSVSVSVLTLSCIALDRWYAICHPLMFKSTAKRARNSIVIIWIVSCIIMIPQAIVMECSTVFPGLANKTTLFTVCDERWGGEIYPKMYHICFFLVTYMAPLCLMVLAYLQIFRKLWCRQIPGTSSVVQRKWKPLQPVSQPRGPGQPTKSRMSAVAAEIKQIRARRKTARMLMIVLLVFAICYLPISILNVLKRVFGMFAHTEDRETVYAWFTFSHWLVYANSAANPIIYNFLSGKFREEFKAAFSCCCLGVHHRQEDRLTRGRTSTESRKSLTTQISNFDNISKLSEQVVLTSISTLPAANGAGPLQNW
Assay: Measurement of orexin type 2 receptor agonist activity (FLIPR calcium fluorescence)
Type: cell-based
Settings: CHO cells expressing hOX2R, FLIPR calcium fluorescence; for EC50: read-out: hOx2 pEC50 (converted); for Emax: CHO, read-out: hOx2 Emax (%)
In short: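 Agonism was read as fluorescence in cells stably expressing human OX2R. E. is the response at 10 μM relative to orexin A as full agonist (100%).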

| EC50 [nM] | Emax [%] | Compound |
| --- | --- | --- |
| 1 to 10 | 90 to 100 | O=C([C@H](O)C(F)(F)F)N1CC2(CC2)[C@H](NS(=O)(=O)CF)[C@@H]1Cc1cccc(-c2ccccc2)c1 [Compound 94, N-((6S,7S)-6-([1,1′-biphenyl]-3-ylmethyl)-5-((S)-3,3,3-trifluoro-2-hydroxypropanoyl)-5-azaspiro[2.4]heptan-7-yl)-1-fluoromethanesulfonamide] |
| 1 to 10 | 90 to 100 | O=C(NCC1(F)CC1)N1CC2(CC2)[C@H](NS(=O)(=O)CF)[C@@H]1Cc1cc(F)cc(-c2ccccc2)c1F [Compound 228, (6S,7S)-6-((2,5-difluoro-[1,1′-biphenyl]-3-yl)methyl)-N-((1-fluorocyclopropyl)methyl)-7-((fluoromethyl)sulfonamido)-5-azaspiro[2.4]heptane-5-carboxamide] |
| 0.0794 to 1 | 90 to 100 | CCNC(=O)N1CC2(CC2)C(NS(=O)(=O)CC)C1Cc1cccc(-c2ccccc2)c1F (racemic) [Compound 52, N-ethyl-7-(ethylsulfonamido)-6-((2-fluoro-[1,1′-biphenyl]-3-yl)methyl)-5-azaspiro[2.4]heptane-5-carboxamide] |
| 1 to 10 | 90 to 100 | O=C([C@H]1CCO1)N1CC2(CC2)[C@H](NS(=O)(=O)C(F)F)[C@@H]1Cc1cccc(-c2cccc(F)c2)c1 [Compound 213, 1,1-difluoro-N-((6S,7S)-6-((3′-fluoro-[1,1′-biphenyl]-3-yl)methyl)-5-((R)-oxetane-2-carbonyl)-5-azaspiro[2.4]heptan-7-yl)methanesulfonamide] |
| 1 to 10 | 90 to 100 | O=C([C@H](O)C(F)F)N1CC2(CC2)[C@H](NS(=O)(=O)CF)[C@@H]1Cc1cc(F)cc(-c2ccccc2)c1F [Compound 360, N-((6S,7S)-5-((S)-3,3-difluoro-2-hydroxypropanoyl)-6-((2,5-difluoro-[1,1′-biphenyl]-3-yl)methyl)-5-azaspiro[2.4]heptan-7-yl)-1-fluoromethanesulfonamide] |
| 1 to 10 | 90 to 100 | O=C([C@H]1CCO1)N1CC2(CC2)[C@H](NS(=O)(=O)CF)[C@@H]1Cc1cc(F)cc(-c2cccc(F)c2F)c1F [Compound 217, 1-fluoro-N-((6S,7S)-5-((R)-oxetane-2-carbonyl)-6-((2,2′,3′,5-tetrafluoro-[1,1′-biphenyl]-3-yl)methyl)-5-azaspiro[2.4]heptan-7-yl)methanesulfonamide] |
| 0.0794 to 1 | 90 to 100 | O=C([C@H]1CCO1)N1CC2(CC2)[C@H](NS(=O)(=O)C2(F)CC2)[C@@H]1Cc1cccc(-c2ccccc2)c1F [Compound 420, 1-fluoro-N-((6S,7S)-6-((2-fluoro-[1,1′-biphenyl]-3-yl)methyl)-5-((R)-oxetane-2-carbonyl)-5-azaspiro[2.4]heptan-7-yl)cyclopropane-1-sulfonamide] |
| 100 to 1000 | 90 to 100 | CS(=O)(=O)N[C@H]1[C@@H](Cc2cccc(-c3ccccc3)c2F)N(C(=O)[C@H]2CCO2)CC12CC2 [Compound 22, N-((6R,7R)-6-((2-fluoro-[1,1′-biphenyl]-3-yl)methyl)-5-((R)-oxetane-2-carbonyl)-5-azaspiro[2.4]heptan-7-yl)methanesulfonamide] |
| 10 to 100 | 90 to 100 | N#CCS(=O)(=O)N[C@@H]1[C@H](Cc2cccc(-c3ccccc3)c2F)N(C(=O)[C@H]2CCO2)CC12CC2 [Compound 362, 1-cyano-N-((6S,7S)-6-((2-fluoro-[1,1′-biphenyl]-3-yl)methyl)-5-((R)-oxetane-2-carbonyl)-5-azaspiro[2.4]heptan-7-yl)methanesulfonamide] |
| 1 to 10 | 90 to 100 | N#C[C@]1(C(=O)N2CC3(CC3)[C@H](NS(=O)(=O)C(F)F)[C@@H]2Cc2cccc(-c3ccccc3)c2F)CCO1 [Compound 408, N-((6S,7S)-5-((S)-2-cyanooxetane-2-carbonyl)-6-((2-fluoro-[1,1′-biphenyl]-3-yl)methyl)-5-azaspiro[2.4]heptan-7-yl)-1,1-difluoromethanesulfonamide] |
| 0.0794 to 1 | 90 to 100 | C[C@H](F)C(=O)N1CC2(CC2)[C@H](NS(=O)(=O)CF)[C@@H]1Cc1cccc(-c2cc(F)cc(F)c2)c1F [Compound 232, 1-fluoro-N-((6S,7S)-5-((S)-2-fluoropropanoyl)-6-((2,3′,5′-trifluoro-[1,1′-biphenyl]-3-yl)methyl)-5-azaspiro[2.4]heptan-7-yl)methanesulfonamide] |
| 0.0794 to 1 | 90 to 100 | CCS(=O)(=O)N[C@@H]1[C@H](Cc2cccc(-c3cc(F)cc(F)c3)c2F)N(C(=O)[C@H]2CCO2)CC12CC2 [Compound 185, N-((6S,7S)-5-((R)-oxetane-2-carbonyl)-6-((2,3′,5′-trifluoro-[, 1′-biphenyl]-3-yl)methyl)-5-azaspiro[2.4]heptan-7-yl)ethanesulfonamide] |
| 1 to 10 | 90 to 100 | O=C([C@H]1CCO1)N1CC2(CC2)[C@H](NS(=O)(=O)CF)[C@@H]1Cc1cc(F)cc(-c2cc(F)ccc2F)c1F [Compound 218, 1-fluoro-N-((6S,7S)-5-((R)-oxetane-2-carbonyl)-6-((2,2′,5,5′-tetrafluoro-[1,1′-biphenyl]-3-yl)methyl)-5-azaspiro[2.4]heptan-7-yl)methanesulfonamide] |
| 1 to 10 | 90 to 100 | CC[C@](C)(O)C(=O)N1CC2(CC2)[C@H](NS(=O)(=O)CF)[C@@H]1Cc1cccc(-c2cccc(F)c2)c1F [Compound 376, N-((6S,7S)-6-((2,3′-difluoro-[1,1′-biphenyl]-3-yl)methyl)-5-((S)-2-hydroxy-2-methylbutanoyl)-5-azaspiro[2.4]heptan-7-yl)-1-fluoromethanesulfonamide] |
| 0.0794 to 1 | 90 to 100 | O=C([C@@H](O)C1CC1)N1CC2(CC2)[C@H](NS(=O)(=O)C(F)F)[C@@H]1Cc1cccc(-c2cc(F)cc(F)c2)c1F [Compound 377, N-((6S,7S)-5-((S)-2-cyclopropyl-2-hydroxyacetyl)-6-((2,3′,5′-trifluoro-[1,1′-biphenyl]-3-yl)methyl)-5-azaspiro[2.4]heptan-7-yl)-1,1-difluoromethanesulfonamide] |
| 10 to 100 | 80 to 90 | CC(C)(O)C(=O)N1CC2(CC2)[C@H](NS(C)(=O)=O)[C@@H]1Cc1cccc(-c2ccccc2F)c1F [Compound 361, N-((6S,7S)-6-((2,2'-difluoro-[1,1′-biphenyl]-3-yl)methyl)-5-(2-hydroxy-2-methylpropanoyl)-5-azaspiro[2.4]heptan-7-yl)methanesulfonamide] |
| 10 to 100 | 80 to 90 | CC(F)(F)C(=O)N1CC2(CC2)[C@H](NS(C)(=O)=O)[C@@H]1Cc1cccc(-c2cccc(F)c2)c1F [Compound 294, N-((6S,7S)-6-((2,3'-difluoro-[1,1′-biphenyl]-3-yl)methyl)-5-(2,2-difluoropropanoyl)-5-azaspiro[2.4]heptan-7-yl)methanesulfonamide] |
| 0.0794 to 1 | 90 to 100 | N#CC1(C(=O)N2CC3(CC3)[C@H](NS(=O)(=O)CF)[C@@H]2Cc2cc(F)cc(-c3ccccc3)c2F)CCC1 [Compound 413, N-((6S,7S)-5-(1-cyanocyclobutane-1-carbonyl)-6-((2,5-difluoro-[1,1′-biphenyl]-3-yl)methyl)-5-azaspiro[2.4]heptan-7-yl)-1-fluoromethanesulfonamide] |
| 1 to 10 | 90 to 100 | CN(CCC#N)C(=O)N1CC2(CC2)[C@H](NS(C)(=O)=O)[C@@H]1Cc1cccc(-c2ccccc2)c1F [Compound 327, (6S,7S)-N-(2-cyanoethyl)-6-((2-fluoro-[1,1′-biphenyl]-3-yl)methyl)-N-methyl-7-(methylsulfonamido)-5-azaspiro[2.4]heptane-5-carboxamide] |
| 1 to 10 | 90 to 100 | CS(=O)(=O)NC1C(Cc2cccc(-c3ccccc3)c2F)N(C(=O)[C@H]2C[C@H](F)C2)CC12CC2 (mixture of isomers) [Compound 90, N-(6-((2-fluoro-[1,1′-biphenyl]-3-yl)methyl)-5-((1r,3r)-3-fluorocyclobutane-1-carbonyl)-5-azaspiro[2.4]heptan-7-yl)methanesulfonamide] |
| 10 to 100 | 80 to 90 | C[C@@H](F)C(=O)N1CC2(CC2)[C@H](NS(=O)(=O)CF)[C@@H]1Cc1cccc(-c2cc(F)cc(F)c2)c1F [Compound 233, 1-fluoro-N-((6S,7S)-5-((R)-2-fluoropropanoyl)-6-((2,3′,5′-trifluoro-[1,1′-biphenyl]-3-yl)methyl)-5-azaspiro[2.4]heptan-7-yl)methanesulfonamide] |
| 0.0794 to 1 | 80 to 90 | CN(C)S(=O)(=O)N[C@@H]1[C@H](Cc2cc(F)cc(-c3cccc(F)c3)c2F)N(C(=O)[C@H]2CCO2)CC12CC2 [Compound 124, 1-fluoro-N-((6S,7S)-5-((R)-oxetane-2-carbonyl)-6-((2,3′,5-trifluoro-[1,1′-biphenyl]-3-yl)methyl)-5-azaspiro[2.4]heptan-7-yl)-N,N-dimethylsulfuric diamide] |
| 1 to 10 | 90 to 100 | CC[C@@](C)(O)C(=O)N1CC2(CC2)[C@H](NS(=O)(=O)CF)[C@@H]1Cc1cccc(-c2cccc(F)c2)c1F [Compound 379, N-((6S,7S)-6-((2,3′-difluoro-[1,1′-biphenyl]-3-yl)methyl)-5-((R)-2-hydroxy-2-methylbutanoyl)-5-azaspiro[2.4]heptan-7-yl)-1-fluoromethanesulfonamide] |
